Earlier results as cited in US20040067963A1, “Methods to prevent or ameliorate trauma-related psychological disorders” (University of Florida, priority 2002, published 2004).

Experiments:
[1] = tested on: PTSD in 53 civilians; conditions: up to 60 mg/day
[2] = tested on: patients with HRV parameters indicating autonomic dysregulation characteristic of PTSD; conditions: 16 patients, 20-60 mg of fluoxetine, vs controls
[3] = tested on: patients with combat-related PTSD; conditions: 301 patients, by week 6 of treatment, normal to upper range of usual antidepressant doses
[4] = tested on: outpatients with PTSD; conditions: 12 week trial, 187 outpatients with PTSD, primarily female victims of sexual assault

SMILES | effect on symptom severity vs placebo ([1]; by week 2-4) | effectiveness on most measures, including disability improvement, vs placebo ([1]; by week 12) | heart rate variability (HRV) [2] | total Treatment Outcome PTSD rating scale score, change from baseline vs placebo [3] | efficacy compared with placebo [4]
CNCCC(Oc1ccc(C(F)(F)F)cc1)c1ccccc1 (centres unmarked) [fluoxetine] | significantly more effect on symptom severity than placebo | more effective on most measures | significantly higher HRV than controls | statistically significant improvement from baseline | 
CN[C@H]1CC[C@@H](c2ccc(Cl)c(Cl)c2)c2ccccc21 [sertraline] |  |  |  |  | significant superiority
